According to patent US11649212B2, “Inhibitors of indoleamine 2,3-dioxygenase and methods of their use” (BRISTOL-MYERS SQUIBB COMPANY, priority 2017, dated 2023):
pIC50: −log10 of the molar value.

Legend:
[1] = biological target: T1, human IDO1 (Homo sapiens, UniProt P14902); assay: IDO inhibition assay in human IDO1/HEK293 cells; format: cell-based; conditions: HEK293 cells stably expressing human IDO1, 20 hours incubation, absorbance at 490 nm; read-out: IDO1 HEK Human IC50
T1 construct: expressed in transfected cells
T1 sequence (P14902 whole entry): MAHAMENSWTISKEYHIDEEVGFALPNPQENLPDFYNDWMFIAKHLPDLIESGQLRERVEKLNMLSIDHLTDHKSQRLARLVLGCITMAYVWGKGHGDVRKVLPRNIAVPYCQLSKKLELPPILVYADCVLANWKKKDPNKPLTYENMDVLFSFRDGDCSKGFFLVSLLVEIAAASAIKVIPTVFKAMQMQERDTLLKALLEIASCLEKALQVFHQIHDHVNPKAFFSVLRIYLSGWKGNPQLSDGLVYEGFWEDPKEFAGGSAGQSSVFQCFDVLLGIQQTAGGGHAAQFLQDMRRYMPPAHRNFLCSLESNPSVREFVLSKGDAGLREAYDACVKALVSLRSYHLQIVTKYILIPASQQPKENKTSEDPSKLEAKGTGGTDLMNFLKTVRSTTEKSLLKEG
Experimental: HEK293 cells were transfected with a pCDNA-based mammalian expression vector harboring human IDO1 cDNA (NM 002164.2) by electroporation. They were cultured in medium (DMEM with 10% FBS) containing 1 mg/ml G418 for two weeks. Clones of HEK293 cells that stably expressed human IDO1 protein were selected and expanded for IDO inhibition assay.
The human IDO1/HEK293 cells were seeded at 10,000 cells per 50 μL per well with RPMI/phenol red free media contains 10% FBS in a 384-well black wall clear bottom tissue culture plate (Matrix Technologies LLC) 100 nL of certain concentration of compound was then added to each well using ECHO liquid handling systems. The cells were incubated for 20 hours in 37° C. incubator with 5% CO2.
The compound treatments were stopped by adding trichloroacetic acid (Sigma-Aldrich) to a final concentration at 0.2%. The cell plate was further incubated at 50° C. for 30 minute. The equal volume supernatant (20 μL) and 0.2% (w/v) Ehrlich reagent (4-dimethylaminobenzaldehyde, Sigma-Aldrich) in glacial acetic acid were mixed in a new clear bottom 384-well plate. This plate was then incubated at room temperature for 30 minute. The absorbance at 490 nm was measured on Envision plate reader.
Compound IC50 values were calculated using the counts of 500 nM of a reference standard treatment as one hundred percent inhibition, and counts of no compound but DMSO treatment as zero percent inhibition.

[2] = biological target: T2, Indoleamine 2,3-Dioxygenase (IDO) (Homo sapiens, UniProt P14902); assay: HeLa cell-based indoleamine 2,3-dioxygenase (IDO) assay (kynurenine production); conditions: HeLa cells, IFNγ 25 ng/mL, 48 hour incubation, kynurenine absorbance at 480 nm
T2 construct: endogenous in cells; host or cells: HeLa (ATCC CCL-2), stimulated with IFNγ 25 ng/mL
T2 sequence (P14902 whole entry): as above
Experimental: Assessment of Inhibitor Activity in HeLa Cell-Based Indoleamine 2,3-Dioxygenase (IDO) Assay:
HeLa (ATCC® CCL-2) cells were obtained from the ATCC® and cultured in Dulbecco's Modified Eagle Medium supplemented with 4.5 g/L glucose, […] (#10-013-CV, Corning), 2 mM L-alanyl-L-glutamine dipeptide (#35050-061, Gibco), 100U/mL penicillin, 100 μg/mL streptomycin (#SV30010, HyClone) and 10% fetal bovine serum (#SH30071.03 HyClone). Cells were maintained in a humidified incubator at 37° C. in 5% CO2.
IDO activity was assessed as a function of kynurenine production as follows: HeLa cells were seeded in a 96-well culture plate at a density of 5,000 cells/well and allowed to equilibrate overnight. After 24 hours, the media was aspirated and replaced with media containing IFNγ (#285-IF/CF, R&D Systems) at a final concentration of 25 ng/mL. A serial dilution of each test compound was added to the cells in a total volume of 200 μL of culture medium. After a further 48 hour incubation, 170 μL of supernatant was transferred from each well to a fresh 96-well plate. 12.1 μL of 6.1N trichloroacetic acid (#T0699, Sigma-Aldrich) was added to each well and mixed, followed by incubation at 65° C. for 20 minutes to hydrolyze N-formylkynurenine, the product of indoleamine 2,3-dioxygenase, to kynurenine. The reaction mixture was then centrifuged for 10 mins at 500×g to sediment the precipitate. 100 μL of the supernatant was transferred from each well to a fresh 96-well plate. 100 μl of 2% (w/v) p-dimethylaminobenzaldehyde (#15647-7, Sigma-Aldrich) in acetic acid (#A6283, Sigma-Aldrich) was added to each well mixed and incubated at room temperature for 20 mins. Kynurenine concentrations were determined by measuring absorbance at 480 nm and calibrating against an L-kynurenine (#K8625, Sigma-Aldrich) standard curve using a SPECTRAMAX® M2e microplate reader (Molecular Devices). The percentage activity at each inhibitor concentration was determined and IC50 values assessed using nonlinear regression.

Compound | pIC50 [1] | pIC50 [2]
CCCC(C(=O)NC12CC3CC(CC(C3)C1)C2)N1CCN(c2ccnc3ccc(F)cc23)CC1 (single isomer, unassigned) [Example 19] | 5.74 | –
CCCC(C(=O)NC12CC3CC(CC(C3)C1)C2)N1CCN(c2ccnc3ccc(F)cc23)CC1 (single isomer, unassigned) [Example 20] | 5.72 | –
CCC(C(=O)NC1[C@H]2C[C@@H]3C[C@@H](C[C@H]1C3)C2)C1CCN(Cc2cccc(C(F)(F)F)n2)CC1 (single isomer, unassigned) [Example 21, N-(Adamantan-2-yl)-2-(1-((6-(trifluoromethyl)pyridin-2-yl)methyl)piperidin-4-yl)butanamide] | – | 7.70
CCC(C(=O)NC1[C@H]2C[C@@H]3C[C@@H](C[C@H]1C3)C2)C1CCN(Cc2cccc(C(F)(F)F)n2)CC1 (single isomer, unassigned) [Example 22, N-(Adamantan-2-yl)-2-(1-((6-(trifluoromethyl)pyridin-2-yl)methyl)piperidin-4-yl)butanamide] | – | 6.00
C[C@@H](NC(=O)[C@H]1C[C@@H](F)C1)[C@H]1CC[C@@H](c2ccnc3ccc(F)cc32)CC1 [Example 9, (1s,3S)-3-fluoro-N-((R)-1-((1s,4S)-4-(6-fluoroquinolin-4-yl)cyclohexyl)ethyl)cyclobutanecarboxamide] | 6.21 | –
COc1ccc(CN(C(=O)NC2CCCCC2)[C@H]2CC[C@H](c3ccccc3)CC2)cc1 [Example 13, 3-cyclohexyl-1-(4-methoxybenzyl)-1-((1r,4r)-4-phenylcyclohexyl)urea] | – | 7.18
COc1ccc(CN(C(=O)NC2CCCC2)[C@H]2CC[C@H](c3ccccc3)CC2)cc1 [Example 14, 3-cyclopentyl-1-(4-methoxybenzyl)-1-((1r,4r)-4-phenylcyclohexyl)-urea] | 6.92 | –
COc1ccc(CN(C(=O)NC2CC2)[C@H]2CC[C@H](c3ccccc3)CC2)cc1 [Example 15, 3-cyclopropyl-1-(4-methoxybenzyl)-1-((1r,4r)-4-phenylcyclohexyl)-urea] | 6.62 | –
CC1(CC(=O)NC23CC4CC(CC(C4)C2)C3)CCN(c2ccnc3ccc(F)cc23)CC1 [Example 16, N-((3s,5s,7s)-Adamantan-1-yl)-2-(1-(6-fluoroquinolin-4-yl)-4-methylpiperidin-4-yl)acetamide] | – | 7.51
CC1(CC(=O)NC23CC4CC(CC(C4)C2)C3)CCN(c2ccnc(C(F)(F)F)c2)CC1 [Example 18, N-((3 s,5 s, 7 s)-Adamantan-1-yl)-2-(4-methyl-1-(2-(trifluoromethyl)pyridin-4-yl)piperidin-4-yl)acetamide] | 6.74 | –

Now from value to compound:

pIC50 [1] | pIC50 [2] | Compound
– | 7.62 | C[C@@H](NC(=O)C12CCC(Cl)(CC1)CC2)[C@H]1CC[C@@H](c2ccnc3ccc(F)cc32)CC1 [Example 1, 4-chloro-N—((R)-1-((cis)-4-(6-fluoroquinolin-4-yl)cyclohexyl)ethyl)bicyclo [2.2.2]octane-1-carboxamide]
– | 7.66 | C[C@@H](NC(=O)C1CCN(c2ccc(F)cc2)CC1)[C@H]1CC[C@@H](c2ccnc3ccc(F)cc32)CC1 [Example 2, 1-(4-Fluorophenyl)-N—((R)-1-((1s,4S)-4-(6-fluoroquinolin-4-yl)cyclohexyl)ethyl) piperidine-4-carboxamide]
6.10 | – | COc1ccc(N2CCC(C(=O)N[C@H](C)[C@H]3CC[C@@H](c4ccnc5ccc(F)cc54)CC3)CC2)cc1 [Example 3, N—((R)-1-((1s,4S)-4-(6-Fluoroquinolin-4-yl)cyclohexyl)ethyl)-1-(4-methoxyphenyl)piperidine-4-carboxamide]
– | 7.74 | C[C@@H](NC(=O)N1CCN(c2ccccc2)CC1)[C@H]1CC[C@@H](c2ccnc3ccc(F)cc32)CC1 [Example 4, N—((R)-1-((1s,4 S)-4-(6-Fluoroquinolin-4-yl)cyclohexyl)ethyl)-4-phenylpiperazine-1-carboxamide]
– | 7.96 | C[C@@H](NC(=O)C1CCCCC1)[C@H]1CC[C@@H](c2ccnc3ccc(F)cc32)CC1 [Example 5, N-((R)-1-((1s,4S)-4-(6-fluoroquinolin-4-yl)cyclohexyl)ethyl)cyclohexanecarboxamide]
6.09 | – | C[C@@H](NC(=O)C1CC1)[C@H]1CC[C@@H](c2ccnc3ccc(F)cc32)CC1 [Example 6, N-((R)-1-((1s,4S)-4-(6-fluoroquinolin-4-yl)cyclohexyl)ethyl)cyclopropanecarboxamide]
– | 6.26 | C[C@@H](NC(=O)C1CC(F)(F)C1)[C@H]1CC[C@@H](c2ccnc3ccc(F)cc32)CC1 [Example 7, 3,3-difluoro-N-((R)-1-((1s,4S)-4-(6-fluoroquinolin-4-yl)cyclohexyl)ethyl)cyclobutanecarboxamide]
6.24 | – | C[C@@H](NC(=O)C1CC(F)C1)C1CCC(c2ccnc3ccc(F)cc23)CC1 (stereo partly drawn) [Example 8, (1r,3R)-3-fluoro-N-((R)-1-((1s,4S)-4-(6-fluoroquinolin-4-yl)cyclohexyl)ethyl)cyclobutanecarboxamide]
6.72 | – | C[C@@H](NC(=O)C1CCC1)[C@H]1CC[C@@H](c2ccnc3ccc(F)cc32)CC1 [Example 10, N-((R)-1-((1s,4S)-4-(6-fluoroquinolin-4-yl)cyclohexyl)ethyl) cyclobutanecarboxamide]
6.12 | – | C[C@H](NC(=O)C1CCC(O)CC1)C1CCC(c2ccnc3ccc(F)cc23)CC1 (stereo partly drawn) [Example 11, (1s,4S)-N-((R)-1-((1s,4S)-4-(6-fluoroquinolin-4-yl)cyclohexyl)ethyl)-4-hydroxycyclohexane carboxamide]
6.77 | – | C[C@@H](NC(=O)[C@H]1CC[C@H](O)CC1)[C@H]1CC[C@@H](c2ccnc3ccc(F)cc32)CC1 [Example 12, (1r,4R)-N-((R)-1-((1s,4S)-4-(6-fluoroquinolin-4-yl)cyclohexyl)ethyl)-4-hydroxycyclohexane carboxamide]
6.41 | – | CC1(CC(=O)N[C@@]23C[C@@H]4C[C@@H](C[C@@](O)(C4)C2)C3)CCN(c2ccnc3ccc(F)cc23)CC1 [Example 17, 2-(1-(6-Fluoroquinolin-4-yl)-4-methylpiperidin-4-yl)-N-((1r,3s,5R,7S)-3-hydroxyadamantan-1-yl)acetamide]
– | 7.85 | C[C@@H](C(=O)NC12CC3CC(C)(CC(C)(C3)C1)C2)[C@H]1CC[C@@H](c2ccnc3ccc(F)cc32)CC1 [Example 23, (cis)-(2R)—N-(3,5-dimethyladamantan-1-yl)-2-(4-(6-fluoroquinolin-4-yl)cyclohexyl)propanamide]
